Test results: DBAASP
In brackets after ≈: the same amount, converted by molar mass. Values belong to the compound of their own block, whether it stands above or below them.

Key:
Assay in all cases: ≥ marks a high value that may be exact or a test limit, other limits are often not marked, values filed in µg/mL are converted to µM
[1] = tested on: Bacillus subtilis ATCC 62037
[2] = tested on: Streptococcus mutans ATCC 25175
[3] = tested on: Cryptococcus neoformans ATCC 34881
[4] = tested on: Pseudomonas putida ATCC 17426
[5] = tested on: Salmonella enterica subsp. enterica serovar Enteritidis ATCC 13076
[6] = tested on: Escherichia coli ATCC 27325
[7] = tested on: Saccharomyces cerevisiae ATCC 44774
[8] = tested on: Staphylococcus aureus ATCC 15752
[9] = tested on: Candida albicans ATCC 10231
[10] = tested on: Escherichia coli BL21
[11] = tested on: Salmonella enterica subsp. enterica serovar Choleraesuis CVCC 2140
[12] = tested on: Pasteurella multocida ATCC 6529
[13] = tested on: Bacillus cereus ATCC 9193
[14] = tested on: Staphylococcus aureus ATCC 29213
[15] = tested on: Staphylococcus aureus ATCC 25923
[16] = tested on: Lactobacillus acidophilus NCTC 1723
[17] = tested on: Pseudomonas aeruginosa ATCC 27853
[18] = tested on: Escherichia coli ATCC 25922
[19] = tested on: Enterococcus faecalis NCTC 12697
[20] = tested on: Pseudomonas aeruginosa ATCC 15692
[21] = tested on: Streptococcus mutans NCTC 10449
[22] = tested on: Escherichia coli UB1005
[23] = tested on: Pseudomonas aeruginosa H744
[24] = tested on: Escherichia coli KF130
[25] = tested on: Pseudomonas aeruginosa H374
[26] = tested on: Pseudomonas aeruginosa K799
[27] = tested on: Salmonella enterica subsp. enterica serovar Typhimurium ATCC 14028s
[28] = tested on: Staphylococcus epidermidis
[29] = tested on: Escherichia coli KF111
[30] = tested on: Staphylococcus aureus VRSA2
[31] = tested on: Micrococcus luteus ATCC 10240
[32] = tested on: Staphylococcus aureus VRSA1
[33] = tested on: Enterococcus faecium BCRC 15B0132
[34] = tested on: Candida albicans ATCC 24433
[35] = tested on: Staphylococcus epidermidis ATCC 12228
[36] = tested on: Klebsiella pneumoniae NCIMB 9111
[37] = tested on: Candida albicans ATCC 10259
[38] = tested on: Staphylococcus aureus VISA1
[39] = tested on: Enterococcus faecalis ATCC 29212
[40] = tested on: Staphylococcus aureus VISA3

SMILES: CC[C@H](C)[C@H](NC(=O)[C@H](CO)NC(=O)[C@H](CC(N)=O)NC(=O)[C@H](CC(C)C)NC(=O)[C@H](Cc1ccc(O)cc1)NC(=O)[C@H](CCCCN)NC(=O)[C@H](CCCCN)NC(=O)[C@@H](NC(=O)[C@H](C)NC(=O)[C@H](CCSC)NC(=O)[C@H](CCC(N)=O)NC(=O)[C@H](CCCCN)NC(=O)[C@H](CCCN=C(N)N)NC(=O)[C@H](CC(C)C)NC(=O)[C@H](CCCN=C(N)N)NC(=O)[C@@H](NC(=O)[C@H](Cc1ccc(O)cc1)NC(=O)[C@H](CC(N)=O)NC(=O)[C@H](CC(=O)O)NC(=O)[C@@H](NC(=O)[C@H](Cc1ccccc1)NC(=O)[C@@H](NC(=O)[C@H](C)NC(=O)[C@H](CC(=O)O)NC(=O)[C@H](CO)NC(=O)[C@@H](N)Cc1cnc[nH]1)C(C)C)[C@@H](C)O)[C@@H](C)O)C(C)C)C(=O)N[C@@H](CC(C)C)C(=O)N[C@@H](CC(N)=O)C(N)=O [HSDAVFTDNYTRLRKQMAVKKYLNSILN]
MIC [15]: > 150 µM
MIC [16]: ≥ 150 µM
MIC [17]: 1.23 µM (≈ 4.1 µg/mL)
MIC [18]: 1.56 µM (≈ 5.2 µg/mL)
MIC [19]: ≥ 150 µM
MIC [6]: ≥ 150 µM
MIC [20]: ≥ 75.1 µM
MIC [21]: ≥ 45.3 µM

SMILES: CC(=O)N[C@@H](C)C(=O)N[C@@H](CCCCN)C(=O)N[C@@H](CCCN=C(N)N)C(=O)N[C@@H](Cc1cnc[nH]1)C(=O)N[C@@H](Cc1cnc[nH]1)C(=O)NCC(=O)N[C@@H](Cc1ccc(O)cc1)C(=O)N[C@@H](CCCCN)C(=O)N[C@@H](CCCN=C(N)N)C(=O)N[C@@H](CCCCN)C(=O)N[C@@H](Cc1ccccc1)C(=O)N[C@@H](Cc1cnc[nH]1)C(N)=O [AKRHHGYKRKFH]
MIC [30]: ≥ 40.9 µM
MIC [15]: 20.8 µM (≈ 33.4 µg/mL)
MIC [17]: 320 µM (≈ 513 µg/mL)
MIC [31]: ≥ 47.9 µM
MIC [32]: ≥ 40.9 µM
MIC [33]: ≥ 40.9 µM
MIC [34]: ≥ 47.9 µM
MIC [35]: 20.8 µM (≈ 33.4 µg/mL)
MIC [36]: ≥ 320 µM
MIC [37]: ≥ 47.9 µM
MIC [38]: ≥ 40.9 µM
MIC [39]: 10.2 µM (≈ 16.4 µg/mL)
MIC [40]: ≥ 40.9 µM

Second part, led by results:

MIC [1]: 0.827 µM (≈ 2 µg/mL)
MIC [2]: 0.827 µM (≈ 2 µg/mL)
MIC [3]: 0.827 µM (≈ 2 µg/mL)
MIC [4]: 0.413 µM (≈ 1 µg/mL)
MIC [5]: 0.827 µM (≈ 2 µg/mL)
MIC [6]: 0.827 µM (≈ 2 µg/mL)
MIC [7]: 0.827 µM (≈ 2 µg/mL)
MIC [8]: 0.413 µM (≈ 1 µg/mL)
MIC [9]: 0.413 µM (≈ 1 µg/mL)
SMILES: CC[C@H](C)[C@H](NC(=O)[C@@H]1CCCN1C(=O)[C@H](Cc1c[nH]c2ccccc12)NC(=O)[C@H](CCC(N)=O)NC(=O)[C@H](CCCCN)NC(=O)[C@@H](NC(=O)[C@@H](NC(=O)[C@@H](N)CCCCN)C(C)C)C(C)C)C(=O)NCC(=O)N[C@@H](CCCCN)C(=O)N[C@H](C(=O)N[C@H](C(=O)N[C@@H](CCCCN)C(=O)N[C@@H](CCCCN)C(=O)N[C@H](C(=O)N[C@H](C(=O)N[C@@H](CCCCN)C(=O)N[C@@H](CCCCN)C(=O)N[C@H](C(=O)N[C@H](C(=O)N[C@@H](CCCCN)C(=O)O)C(C)C)C(C)C)C(C)C)C(C)C)C(C)C)C(C)C [KVVKQWPIGKVVKKVVKKVVK]

MIC [10]: ≥ 57.4 µM
MIC [12]: 14.4 µM
MIC [13]: 0.97 µM
MIC [14]: 3.66 µM
SMILES: CC(C)C[C@@H]1NC(=O)CNC(=O)CNC(=O)[C@H](Cc2cnc[nH]2)NC(=O)[C@@H]2CSSC[C@@H]3NC(=O)[C@H](Cc4ccccc4)NC(=O)[C@H](CC(N)=O)NC(=O)CNC(=O)[C@H](CCC(N)=O)NC(=O)[C@H](CO)NC(=O)[C@H](CCCN=C(N)N)NC(=O)[C@@H](NC(=O)[C@H](C)NC(=O)[C@H](C)NC(=O)[C@@H](NC(=O)[C@H](CC(=O)O)NC(=O)[C@H](C)NC(=O)[C@H](Cc4ccccc4)NC(=O)[C@@H]4CCCN4C(=O)[C@H](C)NC(=O)[C@H](CC(=O)O)NC(=O)[C@H](C)NC(=O)[C@H](CO)NC(=O)CNC(=O)[C@@H]4CCCN4C(=O)[C@H](C)NC(=O)[C@H](C)NC(=O)[C@H](CCC(N)=O)NC(=O)[C@H](Cc4ccccc4)NC(=O)[C@H](CC(C)C)NC(=O)[C@H](Cc4ccccc4)NC(=O)[C@H](CC(C)C)NC(=O)[C@H](CC(C)C)NC(=O)[C@@H](N)C(C)C)[C@@H](C)O)CSSC[C@H](NC(=O)[C@H](CC(N)=O)NC(=O)[C@H](CC(C)C)NC1=O)C(=O)N[C@H](C(=O)N[C@@H](C)C(=O)N[C@@H](CCCCN)C(=O)O)CSSC[C@H](NC(=O)[C@H](C)NC(=O)CNC(=O)[C@H](C)NC(=O)[C@H](CCCN=C(N)N)NC3=O)C(=O)N1CCC[C@H]1C(=O)N1CCC[C@H]1C(=O)N[C@@H]([C@@H](C)O)C(=O)N[C@@H](Cc1ccccc1)C(=O)N[C@@H](C)C(=O)N[C@@H](C)C(=O)N[C@@H](CO)C(=O)NCC(=O)N[C@@H](CO)C(=O)N2 [VLLFLFQAAPGSADAPFADTAACRSQGNFCRAGACPPTFAASGSCHGGLLNCCAK]
MIC [11]: ≥ 73.2 µM

MIC [22]: 0.334 µM (≈ 1 µg/mL)
MIC [23]: 5.34 µM (≈ 16 µg/mL)
MIC [24]: 0.667 µM (≈ 2 µg/mL)
MIC [25]: 5.34 µM (≈ 16 µg/mL)
MIC [26]: 10.7 µM (≈ 32 µg/mL)
MIC [27]: 5.34 µM (≈ 16 µg/mL)
MIC [28]: 21.3 µM (≈ 64 µg/mL)
MIC [29]: 0.667 µM (≈ 2 µg/mL)
SMILES: CC[C@H](C)[C@H](NC(=O)[C@@H]1CCCN1C(=O)[C@H](CCCCN)NC(=O)[C@H](CC(C)C)NC(=O)[C@H](C)NC(=O)[C@@H](NC(=O)[C@H](Cc1ccc(O)cc1)NC(=O)[C@H](CC(C)C)NC(=O)[C@@H](NC(=O)[C@@H](NC(=O)[C@H](CCCN=C(N)N)NC(=O)[C@H](C)NC(=O)[C@@H]1CCCN1C(=O)[C@H](CO)NC(=O)[C@H](CCCCN)NC(=O)[C@H](Cc1ccccc1)NC(=O)[C@@H](NC(=O)[C@H](CCCCN)NC(=O)[C@H](CC(C)C)NC(=O)[C@H](Cc1ccccc1)NC(=O)[C@H](CO)NC(=O)[C@H](CCCCN)NC(=O)[C@H](Cc1c[nH]c2ccccc12)NC(=O)[C@@H](N)CCCCN)[C@@H](C)O)[C@@H](C)O)C(C)C)[C@@H](C)O)C(=O)N[C@@H](CO)C(=O)N[C@@H](CO)C(=O)O [KWKSFLKTFKSPARTVLYTALKPISS]
